Test results taken from patent US20250214962A1, “PYRIDINONE DERIVATIVES AS SELECTIVE CYTOTOXIC AGENTS AGAINST HIV INFECTED CELLS” (Merck Sharp & Dohme LLC, priority 2019, published 2025).

Experiments:
[1] = tested on: infected PBMCs (VSV-G pseudotyped HIV virus); assay: cells; assay type: cell-based, human; conditions: Homo sapiens, PBMC, read-out: SMACK EC50_50% NHS
Viking EC50, 50% NHS = assay type: cell-based; conditions: method not described, read-out: Viking EC50_50% NHS

SMILES	EC50 [1] [nM]	EC50 (Viking EC50, 50% NHS) [nM]
Cc1c(C#N)cc(C(F)F)cc1Oc1c(C(F)(F)C(F)F)ncn(Cc2ccc[nH]c2=O)c1=O [Example 17, 5-(difluoromethyl)-2-methyl-3-((6-oxo-1-((2-oxo-1,2-dihydropyridin-3-yl)methyl)-4-(1,1,2,2-tetrafluoroethyl)-1,6-dihydropyrimidin-5-yl)oxy)benzonitrile]	218	17.1
Cc1c(C#N)cc(Cl)cc1Oc1c(C(F)(F)F)ncn(Cc2cc(F)c[nH]c2=O)c1=O [Example 19, 5-chloro-3-((1-((5-fluoro-2-oxo-1,2-dihydropyridin-3-yl)methyl)-6-oxo-4-(trifluoromethyl)-1,6-dihydropyrimidin-5-yl)oxy)-2-methylbenzonitrile]	376	30.7
N#Cc1cc(Cl)cc(Oc2c(C(F)(F)C(F)(F)F)ncn(Cc3cc(F)c[nH]c3=O)c2=O)c1F [Example 20, 5-chloro-2-fluoro-3-((1-((5-fluoro-2-oxo-1,2-dihydropyridin-3-yl)methyl)-6-oxo-4-(perfluoroethyl)-1,6-dihydropyrimidin-5-yl)oxy)benzonitrile]	99	83.7
Cc1ccc(Cn2cnc(C(F)(F)C(F)(F)F)c(Oc3cc(Cl)cc(C#N)c3F)c2=O)c(=O)[nH]1 [Example 21, 5-Chloro-2-Fluoro-3-((1-((6-Methyl-2-Oxo-1,2-Dihydropyridin-3-Yl)Methyl)-6-Oxo-4-(Perfluoroethyl)-1,6-Dihydropyrimidin-5-Yl)Oxy)Benzonitrile]	152	76.8
Cc1ccc(Cn2cnc(C(F)(F)C(F)F)c(Oc3cc(C(F)F)cc(C#N)c3C)c2=O)c(=O)[nH]1 [Example 22, 5-(difluoromethyl)-2-methyl-3-((1-((6-methyl-2-oxo-1,2-dihydropyridin-3-yl)methyl)-6-oxo-4-(1,1,2,2-tetrafluoroethyl)-1,6-dihydropyrimidin-5-yl)oxy)benzonitrile]	131	48.9
Cc1c(C#N)cc(C(F)F)cc1Oc1c(C(F)(F)C(F)(F)F)ncn(Cc2ccc[nH]c2=O)c1=O [Example 23, 5-(Difluoromethyl)-2-Methyl-3-((6-Oxo-1-((2-Oxo-1,2-Dihydropyridin-3-Yl)Methyl)-4-(Perfluoroethyl)-1,6-Dihydropyrimidin-5-Yl)Oxy)Benzonitrile]	234	53
Cc1cc(C#N)c(C)c(Oc2c(C(F)(F)C(F)F)ncn(Cc3c(C)cc(C)[nH]c3=O)c2=O)c1 [Example 24, 3-((1-((4,6-Dimethyl-2-Oxo-1,2-Dihydropyridin-3-Yl)Methyl)-6-Oxo-4-(1,1,2,2-Tetrafluoroethyl)-1,6-Dihydropyrimidin-5-Yl)Oxy)-2,5-Dimethylbenzonitrile]	346	168
Cc1c(C#N)cc(C(F)F)cc1Oc1c(C(F)(F)C(F)F)ncn(Cc2ccc(CO)[nH]c2=O)c1=O [Example 25, 5-(Difluoromethyl)-3-((1-((6-(Hydroxymethyl)-2-Oxo-1,2-Dihydropyridin-3-Yl)Methyl)-6-Oxo-4-(1,1,2,2-Tetrafluoroethyl)-1,6-Dihydropyrimidin-5-Yl)Oxy)-2-Methylbenzonitrile]	72.7	19.6
COCc1ccc(Cn2cnc(C(F)(F)C(F)F)c(Oc3cc(C(F)F)cc(C#N)c3C)c2=O)c(=O)[nH]1 [Example 26, 5-(difluoromethyl)-3-((1-((6-(methoxymethyl)-2-oxo-1,2-dihydropyridin-3-yl)methyl)-6-oxo-4-(1,1,2,2-tetrafluoroethyl)-1,6-dihydropyrimidin-5-yl)oxy)-2-methylbenzonitrile]	90.1	29.3
Cc1c(C#N)cc(C(F)F)cc1Oc1c(C(F)(F)C(F)F)ncn(Cc2ccc(-c3cn[nH]c3)[nH]c2=O)c1=O [Example 27, 5-(difluoromethyl)-3-((1-((2-hydroxy-6-(1H-pyrazol-4-yl)pyridin-3-yl)methyl)-6-oxo-4-(1,1,2,2-tetrafluoroethyl)-1,6-dihydropyrimidin-5-yl)oxy)-2-methylbenzonitrile]	292	77.2
Cc1c(C#N)cc(C(F)F)cc1Oc1c(C(F)(F)C(F)F)ncn(Cc2ccc(C(C)(C)O)[nH]c2=O)c1=O [Example 29, 5-(Difluoromethyl)-3-((1-((6-(2-Hydroxypropan-2-Yl)-2-Oxo-1,2-Dihydropyridin-3-Yl)Methyl)-6-Oxo-4-(1,1,2,2-Tetrafluoroethyl)-1,6-Dihydropyrimidin-5-Yl)Oxy)-2-Methylbenzonitrile]	187	29.8
N#Cc1cc(Cl)cc(Oc2c(C(F)(F)F)ncn(Cc3ccc(-c4cn[nH]c4)[nH]c3=O)c2=O)c1 [Example 30, 3-Chloro-5-((6-Oxo-1-((2-Oxo-6-(1H-Pyrazol-4-Yl)-1,2-Dihydropyridin-3-Yl)Methyl)-4-(Trifluoromethyl)-1,6-Dihydropyrimidin-5-Yl)Oxy)Benzonitrile]	415	30.1
N#Cc1cc(Cl)cc(Oc2c(C(F)(F)C(F)F)ncn(Cc3ccc(CO)[nH]c3=O)c2=O)c1F [Example 31, 5-Chloro-2-Fluoro-3-((1-((6-(Hydroxymethyl)-2-Oxo-1,2-Dihydropyridin-3-Yl)Methyl)-6-Oxo-4-(1,1,2,2-Tetrafluoroethyl)-1,6-Dihydropyrimidin-5-Yl)Oxy)Benzonitrile]	86.8	20.7
N#Cc1cc(Oc2c(C(F)(F)F)ncn(Cc3cc(F)c[nH]c3=O)c2=O)cc(C(F)F)c1 [Example 35]	314	15.6
N#Cc1cc(Cl)cc(Oc2c(C(F)(F)F)ncn(Cc3cc(F)c[nH]c3=O)c2=O)c1Cl [Example 36, 2,5-dichloro-3-((1-((5-fluoro-2-oxo-1,2-dihydropyridin-3-yl)methyl)-6-oxo-4-(trifluoromethyl)-1,6-dihydropyrimidin-5-yl)oxy)benzonitrile]	369	50
N#Cc1cc(Cl)cc(Oc2c(C(F)(F)F)ncn(Cc3cc(F)c[nH]c3=O)c2=O)c1F [Example 37, 5-chloro-2-fluoro-3-((1-((5-fluoro-2-oxo-1,2-dihydropyridin-3-yl)methyl)-6-oxo-4-(trifluoromethyl)-1,6-dihydropyrimidin-5-yl)oxy)benzonitrile]	413	32.4
Cc1c(C#N)cc(C(F)F)cc1Oc1c(C(F)(F)C(F)(F)F)ncn(Cc2cc(F)c[nH]c2=O)c1=O [Example 38, 5-(difluoromethyl)-3-((1-((5-fluoro-2-oxo-1,2-dihydropyridin-3-yl)methyl)-6-oxo-4-(perfluoroethyl)-1,6-dihydropyrimidin-5-yl)oxy)-2-methylbenzonitrile]	191	96.8
Cc1ccc(Cn2cnc(C(F)(F)C(F)F)c(Oc3cc(Cl)cc(C#N)c3F)c2=O)c(=O)[nH]1 [Example 39, 5-Chloro-2-Fluoro-3-((1-((6-Methyl-2-Oxo-1,2-Dihydropyridin-3-Yl)Methyl)-6-Oxo-4-(1,1,2,2-Tetrafluoroethyl)-1,6-Dihydropyrimidin-5-Yl)Oxy)Benzonitrile]	162	33.5
Cc1cc(C)c(Cn2cnc(C(F)(F)C(F)F)c(Oc3cc(C#N)cc(C(F)F)c3)c2=O)c(=O)[nH]1 [Example 40, 3-(difluoromethyl)-5-((1-((4,6-dimethyl-2-oxo-1,2-dihydropyridin-3-yl)methyl)-6-oxo-4-(1,1,2,2-tetrafluoroethyl)-1,6-dihydropyrimidin-5-yl)oxy)benzonitrile]	283	39.2
Cc1cc(C)c(Cn2cnc(C(F)(F)CF)c(Oc3cc(C(F)F)cc(C#N)c3C)c2=O)c(=O)[nH]1 [Example 41, 5-(difluoromethyl)-3-((1-((4,6-dimethyl-2-oxo-1,2-dihydropyridin-3-yl)methyl)-6-oxo-4-(1,1,2-trifluoroethyl)-1,6-dihydropyrimidin-5-yl)oxy)-2-methylbenzonitrile]	283	59.8
Cc1cc(C)c(Cn2cnc(C(F)(F)F)c(Oc3cc(C(F)F)cc(C#N)c3C)c2=O)c(=O)[nH]1 [Example 42, 5-(Difluoromethyl)-3-((1-((4,6-Dimethyl-2-Oxo-1,2-Dihydropyridin-3-Yl)Methyl)-6-Oxo-4-(Trifluoromethyl)-1,6-Dihydropyrimidin-5-Yl)Oxy)-2-Methylbenzonitrile]	222	43.1
